Data taken from US7772180B2, “Hepatitis C virus inhibitors” (Bristol-Myers Squibb Company, priority 2006, dated 2010).
Read-outs that look alike come from different tables or passages of the source.

Assays:
[1] = tested on: HCV replicon (strain 1b) in HUH-7 cells; test: HCV replicon FRET assay; assay type: cell-based, Hepatitis C virus
[2] = molecular target: T1, HCV NS3/4A protease complex, BMS strain (UniProt P27958, species not given/STRAIN_BMS); test: FRET peptide assay to monitor HCV NS3/4A proteolytic activity (BMS strain); assay type: biochemical, Hepatitis C virus (genotype 1a)
T1 construct: other: NS3/4A BMS strain; activity range class; numeric values, unit not given; said of H77 and J4L6S; fused on or other part: A three-lysine solubilising tail at the C-terminus of NS4A; A His tag is implied by the pET21b vector and Ni-NTA purification; Both are printed for the H77 and J4L6S constructs and apply to BMS by inference
T1 sequence (P27958 1027-1657, change not shown, one chain of several): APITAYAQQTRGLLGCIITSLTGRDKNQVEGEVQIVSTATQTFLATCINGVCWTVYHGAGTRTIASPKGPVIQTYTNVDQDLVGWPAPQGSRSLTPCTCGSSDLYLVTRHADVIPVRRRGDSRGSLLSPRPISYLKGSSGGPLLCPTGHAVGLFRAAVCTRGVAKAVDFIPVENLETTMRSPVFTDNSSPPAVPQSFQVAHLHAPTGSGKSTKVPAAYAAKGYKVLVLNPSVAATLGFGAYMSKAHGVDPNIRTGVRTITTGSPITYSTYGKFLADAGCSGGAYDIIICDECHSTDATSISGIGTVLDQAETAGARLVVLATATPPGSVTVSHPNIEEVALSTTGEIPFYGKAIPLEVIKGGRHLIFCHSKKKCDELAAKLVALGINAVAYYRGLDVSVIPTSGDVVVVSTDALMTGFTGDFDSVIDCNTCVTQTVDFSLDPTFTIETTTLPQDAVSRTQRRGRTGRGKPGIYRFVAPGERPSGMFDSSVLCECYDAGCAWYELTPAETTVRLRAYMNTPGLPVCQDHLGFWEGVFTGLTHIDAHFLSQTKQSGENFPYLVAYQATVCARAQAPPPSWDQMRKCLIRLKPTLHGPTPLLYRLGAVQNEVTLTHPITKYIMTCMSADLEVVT
Method in brief: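 Purified recombinant NS3/4A complex from genotype 1a BMS strain, 2-3 nM final, with RET S1 EDANS/DABCYL depsipeptide substrate at 2 μM final in HEPES pH 7.5, NaCl, Triton, glycerol, βME. Cleavage followed in real time by fluorescence. For high-potency compounds: 50 μg/ml BSA added, protease lowered to 300 pM.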

[3] = Hepatitis C virus, Huh-7, read-out: HCV Pro Replicon (EC50), HCV replicon cell assay, numeric values, unit inferred
[4] = read-out: HCV Protease (IC50); NS3/4A BMS strain; numeric values, unit inferred
[5] = Hepatitis C virus, Huh-7, read-out: HCV Pro Replicon (EC50), HCV replicon cell assay, activity range class
[6] = read-out: HCV Protease (IC50); NS3/4A BMS strain; activity range class

Structure (SMILES) | EC50 [1, 3] | IC50 [2, 4] | EC50 [1, 5] | IC50 [2, 6] | other results
C=C[C@@H]1C[C@]1(NC(=O)[C@@H]1C[C@@H](Oc2nccc3cc(OC)ccc23)CN1C(=O)[C@H](Nc1cccnc1)C(C)(C)C)C(=O)NS(=O)(=O)C1CC1 [Compound 13B, 3-methyl-N-3-pyridinyl-D-valyl-(4R)—N-((1R,2S)-1-((cyclopropylsulfonyl)carbamoyl)-2-vinylcyclopropyl)-4-((6-methoxy-1-isoquinolinyl)oxy)-L-prolinamide] | 5740 nM | 1200 nM |  |  | 
C=C[C@@H]1C[C@]1(NC(=O)[C@@H]1C[C@@H](Oc2nccc3cc(OC)ccc23)CN1C(=O)[C@H](Nc1ccccc1)C(C)(C)C)C(=O)NS(=O)(=O)C1CC1 [Compound 15B, 3-methyl-N-phenyl-D-valyl-(4R)—N-((1R,2S)-1-((cyclopropylsulfonyl)carbamoyl)-2-vinylcyclopropyl)-4-((6-methoxy-1-isoquinolinyl)oxy)-L-prolinamide] | 3380 nM | 1900 nM |  |  | 
C=C[C@@H]1C[C@]1(NC(=O)[C@@H]1C[C@@H](Oc2nc(N(C)C)cc3cc(OC)ccc23)CN1C(=O)C(Nc1cc(C)cc(C)n1)C(C)C)C(=O)NS(=O)(=O)C1CC1 (stereo partly drawn) [Compound 17, N-(4,6-dimethyl-2-pyridinyl)valyl-(4R)—N-((1R,2S)-1-((cyclopropylsulfonyl)carbamoyl)-2-vinylcyclopropyl)-4-((3-(dimethylamino)-6-methoxy-1-isoquinolinyl)oxy)-L-prolinamide] |  |  | 3 to 100 nM | 0.6 to 20 nM | 
C=C[C@@H]1C[C@]1(NC(=O)[C@@H]1C[C@@H](Oc2nc(OC)cc3cc(OC)ccc23)CN1C(=O)C(Nc1cc(C)cc(C)n1)C(C)C)C(=O)NS(=O)(=O)C1CC1 (stereo partly drawn) [Compound 21, N-(4,6-dimethyl-2-pyridinyl)valyl-(4R)—N-((1R,2S)-1-((cyclopropylsulfonyl)carbamoyl)-2-vinylcyclopropyl)-4-((3,6-dimethoxy-1-isoquinolinyl)oxy)-L-prolinamide] |  |  | 3 to 100 nM | 0.6 to 20 nM | 
C=C[C@@H]1C[C@]1(NC(=O)[C@@H]1C[C@@H](Oc2ncc(OC)c3ccc(Cl)cc23)CN1C(=O)C(Nc1cc(C)c([N+](=O)[O-])cn1)C(C)(C)C)C(=O)NS(=O)(=O)C1CC1 (stereo partly drawn) [Compound 23, 3-methyl-N-(4-methyl-5-nitro-2-pyridinyl)valyl-(4R)-4-((7-chloro-4-methoxy-1-isoquinolinyl)oxy)-N-((1R,2S)-1-((cyclopropylsulfonl)carbamoyl)-2-vinylcyclopropyl)-L-prolinamide] |  |  | 3 to 100 nM | 0.6 to 20 nM | 
C=C[C@@H]1C[C@]1(NC(=O)[C@@H]1C[C@@H](Oc2ncc(OC)c3ccc(Cl)cc23)CN1C(=O)C(Nc1cncc(C)c1)C(C)(C)C)C(=O)NS(=O)(=O)C1CC1 (stereo partly drawn) [Compound 25, 3-methyl-N-(5-methyl-3-pyridinyl)valyl-(4R)-4-((7-chloro-4-methoxy-1-isoquinolinyl)oxy)-N-((1R,2S)-1-((cyclopropylsulfonyl)carbamoyl)-2-vinylcyclopropyl)-L-prolinamide] |  |  | 3 to 100 nM | 0.6 to 20 nM | 
C=C[C@@H]1C[C@]1(NC(=O)[C@@H]1C[C@@H](Oc2ncc(OC)c3ccc(Cl)cc23)CN1C(=O)[C@@H](Nc1cncc(Cl)c1)C(C)(C)C)C(=O)NS(=O)(=O)C1CC1 [Compound 33, N-(5-chloro-3-pyridinyl)-3-methylvalyl-(4R)-4-((7-chloro-4-methoxy-1-isoquinolinyl)oxy)-N-((1R,2S)-1-((cyclopropylsulfonyl)carbamoyl)-2-vinylcyclopropyl)-L-prolinamide] | 8.19 nM | 2 nM |  |  | 
C=C[C@@H]1C[C@]1(NC(=O)[C@@H]1C[C@@H](Oc2nccc3cc(OC)ccc23)CN1C(=O)[C@@H](Nc1nc(CC)cs1)C(C)(C)C)C(=O)NS(=O)(=O)C1CC1 [Compound 35, N-(4-ethyl-1,3-thiazol-2-yl)-3-methyl-L-valyl-(4R)—N-((1R,2S)-1-((cyclopropylsulfonyl)carbamoyl)-2-vinylcyclopropyl)-4-((6-methoxy-1-isoquinolinyl)oxy)-L-prolinamide] |  |  | 3 to 100 nM | 0.6 to 20 nM | 
C=C[C@@H]1C[C@]1(NC(=O)[C@@H]1C[C@@H](Oc2nccc3cc(OC)ccc23)CN1C(=O)[C@@H](NC1=NCCCS1)C(C)(C)C)C(=O)NS(=O)(=O)C1CC1 [Compound 36, N-(5,6-dihydro-4H-1,3-thiazin-2-yl)-3-methyl-L-valyl-(4R)—N-((1R,2S)-1-((cyclopropylsulfonyl)carbamoyl)-2-vinylcyclopropyl)-4-((6-methoxy-1-isoquinolinyl)oxy)-L-prolinamide] | 1420 nM | 73 nM |  |  | 
C=C[C@@H]1C[C@]1(NC(=O)[C@@H]1C[C@@H](Oc2nc(-c3ccc(OC(F)(F)F)cc3)cc3cc(OC)ccc23)CN1C(=O)[C@@H](NC1=NCCCS1)C(C)(C)C)C(=O)NS(=O)(=O)C1CC1 [Compound 37, N-(5,6-dihydro-4H-1,3-thiazin-2-yl)-3-methyl-L-valyl-(4R)—N-((1R,2S)-1-((cyclopropylsulfonyl)carbamoyl)-2-vinylcyclopropyl)-4-((6-methoxy-3-(4-(trifluoromethoxy)phenyl)-1-isoquinolinyl)oxy)-L-prolinamide] |  |  | 3 to 100 nM | 0.6 to 20 nM | 
C=CC1CC1(NC(=O)C1CC(Oc2ncc(OC)c3ccc(Cl)cc23)CN1C(=O)C(Nc1cccc(F)c1)C(C)(C)C)C(=O)NS(=O)(=O)C1CC1 (centres unmarked) [Compound 200B] | 195 nM | 160 nM |  |  | 
C=C[C@@H]1C[C@]1(NC(=O)[C@@H]1C[C@@H](Oc2ncc(OC)c3ccc(Cl)cc23)CN1C(=O)C(Nc1cccc(C(=O)NC)c1)C(C)(C)C)C(=O)NS(=O)(=O)C1CC1 (some centres unmarked) [Compound 202A] |  |  | 3 to 100 nM | 0.6 to 20 nM | 
C=C[C@@H]1C[C@]1(NC(=O)[C@@H]1C[C@@H](Oc2ncc(OC)c3ccc(Cl)cc23)CN1C(=O)C(Nc1cccc(C#N)c1)C(C)(C)C)C(=O)NS(=O)(=O)C1CC1 (some centres unmarked) [Compound 203A] | 1.54 nM | 4 nM |  |  | 
C=C[C@@H]1C[C@]1(NC(=O)[C@@H]1C[C@@H](Oc2ncc(OC)c3ccc(Cl)cc23)CN1C(=O)[C@@H](Nc1ccc(S(N)(=O)=O)cc1)C(C)(C)C)C(=O)NS(=O)(=O)C1CC1 [Compound 215A, 3-methyl-N-(4-sulfamoylphenyl)-L-valyl-(4R)-4-((7-chloro-4-methoxy-1-isoquinolinyl)oxy)-N-((1R,2S)-1-((cyclopropylsulfonyl)carbamoyl)-2-vinylcyclopropyl)-L-prolinamide] |  |  | 3 to 100 nM | 0.6 to 20 nM | 
C=C[C@@H]1C[C@]1(NC(=O)[C@@H]1C[C@@H](Oc2ncc(OC)c3ccc(Cl)cc23)CN1C(=O)[C@H](Nc1ccc(S(N)(=O)=O)cc1)C(C)(C)C)C(=O)NS(=O)(=O)C1CC1 [Compound 215B, 3-methyl-N-(4-sulfamoylphenyl)-D-valyl-(4R)-4-((7-chloro-4-methoxy-1-isoquinolinyl)oxy)-N-((1R,2S)-1-((cyclopropylsulfonyl)carbamoyl)-2-vinylcyclopropyl)-L-prolinamide] | 5490 nM | 830 nM |  |  | 
C=C[C@@H]1C[C@]1(NC(=O)[C@@H]1C[C@@H](Oc2ncc(OC)c3ccc(Cl)cc23)CN1C(=O)[C@@H](Nc1ccc(C(=O)NC(C)(C)c2ccccc2)cc1)C(C)(C)C)C(=O)NS(=O)(=O)C1CC1 [Compound 222A, 3-methyl-N-(4-((1-methyl-1-phenylethyl)carbamoyl)phenyl)-L-valyl-(4R)-4-((7-chloro-4-methoxy-1-isoquinolinyl)oxy)-N-((1R2S)-1-((cyclopropylsulfonl)carbamoyl)-2-vinylcyclopropyl)-L-prolinamide] |  |  |  |  | EC50 ([1]; HCV replicon cell assay, activity range class, read-out: HCV Pro Replicon (EC50)): 3 to 100 nM; IC50 ([2]; NS3/4A BMS strain; activity range class; read-out: HCV Protease (IC50)): 0.6 to 20 nM
C=C[C@@H]1C[C@]1(NC(=O)[C@@H]1C[C@@H](Oc2ncc(OC)c3ccc(Cl)cc23)CN1C(=O)[C@H](CC)Nc1nsnc1OCC)C(=O)NS(=O)(=O)C1CC1 [Compound 233A, (4R)-4-((7-chloro-4-methoxy-1-isoquinolinyl)oxy)-N-((1R,2S)-1-((cyclopropylsulfonyl)carbamoyl)-2-vinylcyclopropyl)-1-((2S)-2-((4-ethoxy-1,2,5-thiadiazol-3-yl)amino)butanoyl)-L-prolinamide] |  |  | 100 to 1000 nM | 20 to 200 nM | 
C=C[C@@H]1C[C@]1(NC(=O)[C@@H]1C[C@@H](Oc2ncc(OC)c3ccc(Cl)cc23)CN1C(=O)C(C)Nc1n[s+]([O-])nc1OC)C(=O)NS(=O)(=O)C1CC1 (some centres unmarked) [Compound 236] |  |  | > 1000 nM | > 200 nM | 
C=C[C@@H]1C[C@]1(NC(=O)[C@@H]1C[C@@H](Oc2ncc(OC)c3ccc(Cl)cc23)CN1C(=O)C(C)Nc1n[s+]([O-])nc1OCC)C(=O)NS(=O)(=O)C1CC1 (some centres unmarked) [Compound 237] |  |  | > 1000 nM | > 200 nM | 
C=C[C@@H]1C[C@]1(NC(=O)[C@@H]1C[C@@H](Oc2ncc(OC)c3ccc(Cl)cc23)CN1C(=O)C(C)Nc1nsnc1OC)C(=O)NS(=O)(=O)C1CC1 (some centres unmarked) [Compound 238] |  |  | 100 to 1000 nM | 20 to 200 nM | 
C=C[C@@H]1C[C@]1(NC(=O)[C@@H]1C[C@@H](Oc2ncc(OC)c3ccc(Cl)cc23)CN1C(=O)C(C)Nc1nsnc1OCC)C(=O)NS(=O)(=O)C1CC1 (some centres unmarked) [Compound 239] |  |  | 100 to 1000 nM | > 200 nM | 
C=C[C@@H]1C[C@]1(NC(=O)[C@@H]1C[C@@H](Oc2ncc(OC)c3ccc(Cl)cc23)CN1C(=O)C(CC)Nc1nsnc1OC)C(=O)NS(=O)(=O)C1CC1 (some centres unmarked) [Compound 240] |  |  | 100 to 1000 nM | 0.6 to 20 nM | 
